# Assay results as given in patent US10611778B2, “Fused bicyclic inhibitors of menin-MLL interaction” (Janssen Pharmaceutica NV, priority 2016, dated 2020).
# pIC50: −log10 of the molar value. Like-named read-outs stand apart in the source and are kept apart here.
# Columns and labels:
# [1] = biological target: T1, Menin/MLL (terbium chelate-labeled menin, FITC-MBM1 peptide) (Homo sapiens, UniProt O00255, T541A); assay: Menin/MLL homogenous time-resolved fluorescence (HTRF) assay; assay type: binding; details: for pIC50: averaged values over all measurements, read-out: Menin HTRF assay (IC50)
# T1 construct: Menin (a.a. 1-610-6×his tag) was labeled with terbium cryptate as follows
# T1 sequence (O00255 with tags, fused parts or gaps T541A): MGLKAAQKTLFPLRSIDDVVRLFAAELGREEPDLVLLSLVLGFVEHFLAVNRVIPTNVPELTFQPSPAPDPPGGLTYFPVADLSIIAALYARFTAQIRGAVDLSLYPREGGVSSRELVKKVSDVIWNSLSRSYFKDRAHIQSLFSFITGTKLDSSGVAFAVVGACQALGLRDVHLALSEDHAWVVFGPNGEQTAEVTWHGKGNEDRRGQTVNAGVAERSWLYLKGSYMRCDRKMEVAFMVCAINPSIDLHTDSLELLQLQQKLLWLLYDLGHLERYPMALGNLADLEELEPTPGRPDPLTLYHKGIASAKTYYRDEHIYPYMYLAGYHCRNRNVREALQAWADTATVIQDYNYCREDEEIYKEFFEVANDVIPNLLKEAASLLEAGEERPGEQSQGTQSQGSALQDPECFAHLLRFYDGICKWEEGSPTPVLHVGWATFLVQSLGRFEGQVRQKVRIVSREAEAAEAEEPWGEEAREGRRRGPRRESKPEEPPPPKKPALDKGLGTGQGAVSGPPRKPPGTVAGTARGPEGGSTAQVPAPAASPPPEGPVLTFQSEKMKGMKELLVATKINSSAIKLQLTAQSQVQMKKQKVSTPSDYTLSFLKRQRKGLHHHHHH
# Method in brief: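 Compound preincubated 5 min with terbium-cryptate-labeled menin (aa 1-610, His-tagged; 100 pM final), then 75 nM FITC-MBM1 peptide added, 15 min at ambient temperature; 0.5% DMSO, Tris pH 7.5 buffer. HTRF ratio 520/490 nm; % inhibition vs saturating competitor, IC50 from 11-point three-fold titration from 31 μM.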
# MV-4-11 = assay: Proliferation assay (spheroid assay) MV-4-11; assay type: cell-based, human; details: for pIC50: MV4-11, MV-4-11, averaged values over all measurements, read-out: Spheroid assay MV-4-11 (IC50); for IC50: MV-4-11, 8 d, individual measurements (not averaged), read-out: (2) Spheroid assay MV-4-11 (IC50 (μM))
# Method in brief: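 Cells were grown as spheroids in ultra-low attachment round-bottom wells with compound (0.3% DMSO) for 8 d at 37 °C, imaged every 4 h, with confluence as spheroid size. AUC of confluence versus time (t=0 baseline) was expressed as % of DMSO control, and absolute IC50 came from a least-squares nonlinear fit.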
# K562 = assay: Proliferation assay (spheroid assay) K562 control cell line; assay type: cell-based; details: Homo sapiens; for pIC50: K562 control cell line, averaged values over all measurements, read-out: Spheroid assay K562 (IC50)
# Description: The anti-proliferative effect of menin/MLL protein/protein interaction inhibitor test compounds was assessed in human leukemia cell lines. The cell lines MV-4-11 and MOLM14 harbor MLL translocations and express the MLL fusion proteins MLL-AF4 and MLL-AF9, respectively, as well as the wildtype protein from the second allele. […] K562 and KG1 were used as a control cell lines containing two MLL wildtype alleles in order to exclude compounds that display general cytotoxic effects.
# MV-4-11 and MOLM14 were cultured in RPMI-1640 (Sigma Aldrich) supplemented with 10% fetal bovine serum (HyClone), 2 mM L-glutamine (Sigma Aldrich) and 50 μg/ml gentamycin (Gibco). K562 were propagated in RPMI-1640 (Sigma Aldrich) supplemented with 20% fetal bovine serum (HyClone), 2 mM L-glutamine (Sigma Aldrich) and 50 μg/ml gentamycin (Gibco). KG1 were cultured in Iscove's MDM (Gibco) supplemented with 20% fetal bovine serum (HyClone), 2 mM L-glutamine (Sigma Aldrich) and 50 μg/ml gentamycin (Gibco).
# In order to assess the anti-proliferative effects, 1,500 MV-4-11, 300 MOLM14, 750 K562 or 1,300 KG1 cells were seeded in 200 μl media per well in 96-well round bottom, ultra-low attachment plates (Costar, catalogue number 7007). Cell seeding numbers were chosen based on growth curves to ensure linear growth throughout the experiment. Test compounds were added at different concentrations and the DMSO content was normalized to 0.3%. Cells were incubated for 8 d at 37° C. and 5% CO2. Spheroid like growth was monitored in real-time by live-cell imaging (IncuCyteZOOM, Essenbio, 4× objective) acquiring one image every four hours for 8 d. Confluence (%) as a measure of spheroid size was determined using an integrated analysis tool.
# In order to determine the cumulative effect of the test compounds over time, the area under the curve (AUC) in a plot of confluence against time was calculated. Confluence at the beginning of the experiment (t=0) was used as baseline for the AUC calculation.
# Absolute IC50 values were calculated according to the following procedure: % Control=(AUC sample/AUC control)*100
# AUC control=mean AUC of control values (cells without compound/DMSO as vehicle control)
# A non-linear curve fit was applied using the least squares (ordinary) fit method to the plot of % control versus compound concentration. Based on this, the absolute IC50 value (half maximal inhibitory concentration of the test compound causing an anti-proliferative effect of 50% relative to the vehicle control) was calculated.
pIC50 [1],pIC50 (MV-4-11; Homo sapiens),pIC50 (K562),"IC50 ([1]; individual measurements (not averaged), read-out: (3) Menin HTRF assay (IC50 (nM))) [nM]","IC50 (MV-4-11; Homo sapiens, MV4-11, 192 h) [µM]",IC50 (MV-4-11) [µM],"IC50 (K562; 192 h, K562, 8 d, individual measurements (not averaged), read-out: (2) Spheroid assay K562 (IC50 (μM))) [µM]",SMILES
6.10,5.14,< 4.82,–,–,–,–,FC(F)(F)Cc1cc2c(N3CCC4C3CCN4Cc3ccccc3)ncnc2s1 (stereo not shown) [Compound 2]
6.95,5.82,4.88,–,–,–,–,FC(F)(F)Cc1cc2c(N3CCC4C(CCN4Cc4ccccc4)C3)ncnc2s1 (stereo not shown) [Compound 1]
6.32,5.85,5.05,–,–,–,–,"Fc1ccccc1CN1CC[C@H]2CN(c3ncnc4sc(CC(F)(F)F)cc34)CC[C@H]21 (single isomer, unassigned) [Compound 6]"
–,–,–,48,2.1,2.3,> 15,"FC(F)(F)Cc1cc2c(N3CC[C@H]4[C@H](CCN4Cc4ccc[nH]4)C3)ncnc2s1 (single isomer, unassigned) [Compound 8]"
